Data published in US20190314382A1, “COMPOUNDS AND PHARMACEUTICAL COMPOSITIONS THEREOF FOR THE TREATMENT OF INFLAMMATORY DISEASES” (Galapagos NV, priority 2016, published 2019).

Assays:
TNF-α = assay: Biomarker study in RA subjects: serum TNF-α, Luminex 18-Plex; format: in vivo, human; details: observed case
Description: (§1) Double-blind, placebo-controlled add on study in subjects with moderately to severely active RA who have an inadequate response to MTX (oral or parenteral).
(§2) 595 subjects randomized to one of 6 dose regimens of Compound 1 (dosed as a [Compound 1:HCl:3H2O]) (3 dose levels administered either once or twice daily) or placebo on top of each subject's stable dose of MTX.
(§3) Compound 1 (dosed as a [Compound 1:HCl:3H2O]) is dosed for twelve weeks once daily (q.d.) (50 mg, 100 mg or 200 mg) or twice daily (b.i.d.) (25 mg, 50 mg or 100 mg); or placebo.
(§4) 18 parameters from human serum samples (GM-CSF, IFNγ, IL-1β, IL-2, IL-4, IL-5, IL-6, IL-7, IL-8, IL-10, IL-12 (p70), IL-13, IL-17A, IL-21, IL-23, MIP-1α, MIP-1β and TNF-α) are analyzed on a Luminex Plateform (BioPlex® L200) using a Luminex 18-Plex Kit (Millipore: HSTCMAG-28SK).
(§5) Coupled beads react with the sample containing the biomarker of interest. […] Phycoerythrin (PE) serves as a fluorescent indicator.
(§6) The concentration of bead bound analyte is proportional to the MFI (Median Fluorescent Intensity) and back-calculated from interpolation with the calibration curve fitted with a 4 or 5 parameters logistic (4PL or 5PL) regression model selected during method pre-validation.
(§7) Treatment effect was assessed using an ANCOVA model on the changes from baseline, with factors: treatment, baseline value of the PD marker, geographical region and previous use of biologics.

[1] = cited from earlier work
GM-CSF = assay: Biomarker study in RA subjects: serum GM-CSF, Luminex 18-Plex; format: in vivo, human; details: observed case
Description: as §1, §2, §3, §4, §5, §6, §7

IL-7 = assay: Biomarker study in RA subjects: serum IL-7, Luminex 18-Plex; format: in vivo, human; details: observed case
Description: as §1, §2, §3, §4, §5, §6, §7

IL-12 (p70) = assay: Biomarker study in RA subjects: serum IL-12, Luminex 18-Plex; format: in vivo, human; details: observed case
Description: as §1, §2, §3, §4, §5, §6, §7

IL-5 = assay: Biomarker study in RA subjects: serum IL-5, Luminex 18-Plex; format: in vivo, human; details: observed case
Description: as §1, §2, §3, §4, §5, §6, §7

MIP-1α = assay: Biomarker study in RA subjects: serum MIP-1α, Luminex 18-Plex; format: in vivo, human; details: observed case
Description: as §1, §2, §3, §4, §5, §6, §7

IL-23 = assay: Biomarker study in RA subjects: serum IL-23, Luminex 18-Plex; format: in vivo, human; details: observed case
Description: as §1, §2, §3, §4, §5, §6, §7

[2] = 50 mg bid, Week 4, N = 73, RA subjects on MTX
[3] = 50 mg bid, Week 12, N = 73, RA subjects on MTX
[4] = 100 mg bid, Week 4, N = 79, RA subjects on MTX
[5] = 100 mg bid, Week 12, N = 79, RA subjects on MTX
[6] = 100 mg qd, Week 4, N = 68, RA subjects on MTX
[7] = 100 mg qd, Week 12, N = 68, RA subjects on MTX
[8] = 200 mg qd, Week 4, N = 75, RA subjects on MTX
[9] = 200 mg qd, Week 12, N = 75, RA subjects on MTX

For O=C(Nc1nc2cccc(-c3ccc(CN4CCS(=O)(=O)CC4)cc3)n2n1)C1CC1 [Compound 1, cyclopropanecarboxylic acid {5-[4-(1,1-dioxo-thiomorpholin-4-ylmethyl)-phenyl]-[1,2,4]triazolo[1,5-a]pyridin-2yl}-amide], the “TNFα Mean change from baseline at Week 4” value (TNF-α; [2]) was -0.2 pg/mL, the “TNFα Mean change from baseline at Week 12” value (TNF-α; [3]) was 0.3 pg/mL and the “TNFα Mean change from baseline at Week 4” value (TNF-α; [4]) was -1.7 pg/mL. For the same compound, the “TNFα Mean change from baseline at Week 12” value (TNF-α; [5]) was -2.2 pg/mL, the “TNFα Mean change from baseline at Week 4” value (TNF-α; [6]) was 1.0 pg/mL and the “TNFα Mean change from baseline at Week 12” value (TNF-α; [7]) was -1.0 pg/mL. The “TNFα Mean change from baseline at Week 4” value (TNF-α; [8]) was 0.0 pg/mL, the “TNFα Mean change from baseline at Week 12” value (TNF-α; [9]) was -1.2 pg/mL and the safety profile ([1]; in particular regarding anemia, lymphocytes, neutrophils, hemoglobin) was “remarkable safety profile”. The “efficacy in phase II” value ([1]; rheumatoid arthritis, inflammatory bowel diseases, in particular Crohn's disease) was “remarkable efficacy”, the “GM-CSF Mean change from baseline at Week 4” value (GM-CSF; [2]) was -5.4 pg/mL and the “GM-CSF Mean change from baseline at Week 12” value (GM-CSF; [3]) was -14.4 pg/mL. The “GM-CSF Mean change from baseline at Week 4” value (GM-CSF; [4]) was -12.4 pg/mL, the “GM-CSF Mean change from baseline at Week 12” value (GM-CSF; [5]) was -21.1 pg/mL and the “GM-CSF Mean change from baseline at Week 4” value (GM-CSF; [6]) was -9.3 pg/mL. For the same compound, the “GM-CSF Mean change from baseline at Week 12” value (GM-CSF; [7]) was -19.5 pg/mL, the “GM-CSF Mean change from baseline at Week 4” value (GM-CSF; [8]) was -8.4 pg/mL and the “GM-CSF Mean change from baseline at Week 12” value (GM-CSF; [9]) was -15.0 pg/mL. The “IL-7 Mean change from baseline at Week 4” value (IL-7; [2]) was -1.8 pg/mL, the “IL-7 Mean change from baseline at Week 12” value (IL-7; [3]) was -2.6 pg/mL and the “IL-7 Mean change from baseline at Week 4” value (IL-7; [4]) was -2.7 pg/mL. For the same compound, the “IL-7 Mean change from baseline at Week 12” value (IL-7; [5]) was -3.0 pg/mL, the “IL-7 Mean change from baseline at Week 4” value (IL-7; [6]) was -0.4 pg/mL and the “IL-7 Mean change from baseline at Week 12” value (IL-7; [7]) was -1.2 pg/mL. For the same compound, the “IL-7 Mean change from baseline at Week 4” value (IL-7; [8]) was -2.5 pg/mL, the “IL-7 Mean change from baseline at Week 12” value (IL-7; [9]) was -3.3 pg/mL and the “IL-12 Mean change from baseline at Week 4” value (IL-12 (p70); [2]) was -1.9 pg/mL. The “IL-12 Mean change from baseline at Week 12” value (IL-12 (p70); [3]) was -2.3 pg/mL, the “IL-12 Mean change from baseline at Week 4” value (IL-12 (p70); [4]) was -2.3 pg/mL and the “IL-12 Mean change from baseline at Week 12” value (IL-12 (p70); [5]) was -3.9 pg/mL. The “IL-12 Mean change from baseline at Week 4” value (IL-12 (p70); [6]) was -0.2 pg/mL, the “IL-12 Mean change from baseline at Week 12” value (IL-12 (p70); [7]) was -1.2 pg/mL and the “IL-12 Mean change from baseline at Week 4” value (IL-12 (p70); [8]) was -1.7 pg/mL. The “IL-12 Mean change from baseline at Week 12” value (IL-12 (p70); [9]) was 20.5 pg/mL, the “IL-5 Mean change from baseline at Week 4” value (IL-5; [2]) was -18.2 pg/mL and the “IL-5 Mean change from baseline at Week 12” value (IL-5; [3]) was -18.1 pg/mL. The “IL-5 Mean change from baseline at Week 4” value (IL-5; [4]) was -0.8 pg/mL, the “IL-5 Mean change from baseline at Week 12” value (IL-5; [5]) was -1.5 pg/mL and the “IL-5 Mean change from baseline at Week 4” value (IL-5; [6]) was -0.2 pg/mL. The “IL-5 Mean change from baseline at Week 12” value (IL-5; [7]) was -0.7 pg/mL, the “IL-5 Mean change from baseline at Week 4” value (IL-5; [8]) was 0.1 pg/mL and the “IL-5 Mean change from baseline at Week 12” value (IL-5; [9]) was 0.0 pg/mL. The “MIP-1α Mean change from baseline at Week 4” value (MIP-1α; [2]) was 1.0 pg/mL, the “MIP-1α Mean change from baseline at Week 12” value (MIP-1α; [3]) was 8.5 pg/mL and the “MIP-1α Mean change from baseline at Week 4” value (MIP-1α; [4]) was -3.1 pg/mL. The “MIP-1α Mean change from baseline at Week 12” value (MIP-1α; [5]) was -5.2 pg/mL, the “MIP-1α Mean change from baseline at Week 4” value (MIP-1α; [6]) was 7.0 pg/mL and the “MIP-1α Mean change from baseline at Week 12” value (MIP-1α; [7]) was 9.1 pg/mL. The “MIP-1α Mean change from baseline at Week 4” value (MIP-1α; [8]) was -1.6 pg/mL, the “MIP-1α Mean change from baseline at Week 12” value (MIP-1α; [9]) was -2.6 pg/mL and the “IL-23 Mean change from baseline at Week 4” value (IL-23; [2]) was -772.1 pg/mL. The “IL-23 Mean change from baseline at Week 12” value (IL-23; [3]) was -888.7 pg/mL and the “IL-23 Mean change from baseline at Week 4” value (IL-23; [4]) was -273.6 pg/mL.
